The values that follow come from patent publication US12595264B2, “Heterocyclic GLP-1 agonists” (Gasherbrum Bio, Inc., priority 2020, dated 2026).

Read-outs that look alike come from different tables or passages of the source.

The assay addresses T1, GLP-1 Receptor (Homo sapiens, UniProt P43220).
T1 construct: host or cells: HEK293/GLP1R/CRE-LUC (HEK293/CRE-Luc stably expressing GLP-1R)
Description: GLP-1R agonist cAMP stimulation assay (HEK293/GLP1R/CRE-LUC cells, HTRF cAMP dynamic 2 kit). It counts as cell-based. To be noted: HEK293/CRE-Luc cell line (HDB), 30 min incubation. How it is done:
Activation of GLP-1 receptor is known to stimulate cyclic AMP (cAMP) production in cells which indicates primary coupling to the Gαs subunit of the G protein heterotrimeric complex.
To optimize functional activity directed toward Gαs coupling, a HEK293/CRE-Luc cell line developed by HDB stably expressing the GLP-1 Receptor was used. 200×concentration of compound working solutions were prepared (Agilent Technologies Bravo) with ½ log serial dilution in 384-well Echo LDV plate (Labcyte, Cat #LP-0200). 50 nL/well 200×concentration of compound working solutions were moved to 384-well white low volume plate (Greiner, Cat #784075) using Labcyte ECHO550. 1×10^5 cells/mL HEK293/GLP1R/CRE-LUC(HD Biosciences) cell suspensions prepared with assay buffer[DPBS containing 0.5 mM IBMX (Sigma, Cat #15879) and 0.1% BSA (GENVIEW, Cat #FA016-100g)], 10 uL cell suspensions were added to each well of previous generated assay plate which already contains 50n1 compound at 200× concentration using ThermoFisher Multidrop Combi (1000 cells/well). Seal the plate and incubate at 37° C. with 5% CO2 for 30 min.
After incubation the cAMP assay signal was generated using cAMP dynamic 2 Kit (Cisbio). 5 μL cAMP-d2 working solution was added to each well, followed with 5 μL Anti-cAMP antibody-cryptate working solution added to each well using ThermoFisher Multidrop Combi. Incubate at room temperature for 1 hour protected from light. Read the fluorescence at 665 and 615 nm with Reader PerkinElmer EnVision. % Activity=100%×(mean RLU of test sample−mean RLU of vehicle control)/(mean RLU of MAX control−mean RLU of vehicle control))
(In general: Time-resolved FRET reads energy transfer from a long-lived donor to a nearby acceptor.)

Setting [1] is: read-out: GLP1R cAMP Stimulation DR: EC50 (nM) [Species: Human, Assay Cell Line: HDB].
The mark [2] stands for this setting: read-out: GLP1R cAMP Stimulation DR: pEC50 (M) [Species: Human, Assay Cell Line: HDB] (converted).

T1 sequence (P43220 24-463): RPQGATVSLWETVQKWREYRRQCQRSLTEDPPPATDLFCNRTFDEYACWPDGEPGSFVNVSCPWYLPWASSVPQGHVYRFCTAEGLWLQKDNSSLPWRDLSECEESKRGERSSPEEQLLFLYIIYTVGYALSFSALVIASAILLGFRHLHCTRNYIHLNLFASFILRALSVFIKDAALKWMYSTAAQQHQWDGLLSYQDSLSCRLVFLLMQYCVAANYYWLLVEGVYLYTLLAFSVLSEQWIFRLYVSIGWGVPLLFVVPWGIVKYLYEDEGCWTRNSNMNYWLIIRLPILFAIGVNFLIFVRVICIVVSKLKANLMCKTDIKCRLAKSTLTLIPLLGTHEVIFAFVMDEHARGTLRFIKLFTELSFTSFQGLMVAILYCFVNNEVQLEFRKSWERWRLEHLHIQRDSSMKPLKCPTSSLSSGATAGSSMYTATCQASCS

On to `CCP(=O)(CC)c1ccc(-n2ccn(-c3c(-c4cc(C)c(F)c(C)c4)nn4c3C(C)N(C(=O)c3cc5cc(C6CCOCC6)ccc5n3[C@@]3(c5noc(=O)[nH]5)C[C@@H]3C)CC4)c2=O)cc1NC` (mixture of isomers) [Compound 108a, 3-((1S,2S)-1-(2-(3-(3-(4-(diethylphosphoryl)-3-(methylamino)phenyl)-2-oxo-2,3-dihydro-1H-imidazol-1-yl)-2-(4-fluoro-3,5-dimethylphenyl)-4-methyl-4,5,6,7-tetrahydropyrazolo[1,5-a]pyrazine-5-carbonyl)-5-(tetrahydro-2H-pyran-4-yl)-1H-indol-1-yl)-2-methylcyclopropyl)-1,2,4-oxadiazol-5(4H)-one], for which the EC50 under setting [1] worked out at 0.1 nM.
Regarding `Cc1cc(-c2nn3c(c2-n2ccn(-c4ccc5c(cnn5C)c4F)c2=O)C(C)N(C(=O)c2cc4cc(C5CCOCC5)ccc4n2[C@@]2(c4noc(=O)[nH]4)C[C@@H]2C)CC3)cc(C)c1F` (single isomer, unassigned) [Compound 110a], under setting [1], the EC50 came out at 0.13 nM.
In the case of `CCP(=O)(CC)c1ccc(-n2ccn(-c3c(-c4cc(C)c(F)c(C)c4)nn4c3C(C)N(C(=O)c3cc5cc(C6CCOCC6)ccc5n3[C@@]3(c5noc(=O)[nH]5)C[C@@H]3C)CC4)c2=O)cc1NC` (single isomer, unassigned) [Compound 111a], under setting [1], the EC50 was determined as 0.042 nM.
Same read-out and setting: as for `CCP(=O)(CC)c1ccc(-n2ccn(-c3c(-c4cc(C)c(F)c(C)c4)nn4c3C(C)N(C(=O)c3cc5cc(C6CCOCC6)ccc5n3[C@@]3(c5noc(=O)[nH]5)C[C@@H]3C)CC4)c2=O)cc1NC` (single isomer, unassigned) [Compound 112a], the figure is 42 nM; as for `CCP(=O)(CC)c1ccc(-n2ccn(-c3c(-c4cc(C)c(F)c(C)c4)nn4c3C(C)N(C(=O)c3cc5cc([C@H]6CCOC(C)(C)C6)ccc5n3[C@@]3(c5noc(=O)[nH]5)C[C@@H]3C)CC4)c2=O)cc1NC` (single isomer, unassigned) [Compound 113a], 0.17 nM.
Take `CCP(=O)(CC)c1ccc(-n2ccn(-c3c(-c4cc(C)c(F)c(C)c4)nn4c3C(C)N(C(=O)c3cc5cc(N6CCOCC6)ccc5n3[C@@]3(c5noc(=O)[nH]5)C[C@@H]3C)CC4)c2=O)cc1NC` (single isomer, unassigned) [Compound 114a]: under setting [1], the EC50 worked out at 0.068 nM.
Same read-out and setting: as for `CCP(=O)(CC)c1ccc(-n2ccn(-c3c(-c4cc(C)c(F)c(C)c4)nn4c3C(C)N(C(=O)c3cc5cc(N6CCOC(C)(C)C6)ccc5n3[C@@]3(c5noc(=O)[nH]5)C[C@@H]3C)CC4)c2=O)cc1NC` (single isomer, unassigned) [Compound 115a], the figure is 0.15 nM; as for `CCP(=O)(CC)c1ccc(-n2ccn(-c3c(-c4cc(C)c(F)c(C)c4)nn4c3C(C)N(C(=O)c3cc5cc(C6CCC(F)(F)CC6)ccc5n3[C@@]3(c5noc(=O)[nH]5)C[C@@H]3C)CC4)c2=O)cc1NC` (single isomer, unassigned) [Compound 116a], 0.42 nM.
As for `Cc1cc(-c2nn3c(c2-n2ccn(-c4ccc5c(cnn5C)c4F)c2=O)C(C)N(C(=O)c2cc4cc([C@H]5CCOC(C)(C)C5)ccc4n2[C@@]2(c4noc(=O)[nH]4)C[C@@H]2C)CC3)cc(C)c1F` (single isomer, unassigned) [Compound 117a], under setting [1], the EC50 turned out to be 0.07 nM.
For the molecule `CNc1cc(-n2ccn(-c3c(-c4cc(C)c(F)c(C)c4)nn4c3C(C)N(C(=O)c3cc5cc(C6CCOCC6)ccc5n3[C@@]3(c5noc(=O)[nH]5)C[C@@H]3C)CC4)c2=O)ccc1P(C)(C)=O` (single isomer, unassigned) [Compound 118a], the EC50 under setting [2] is 0.0316 nM.
For `Cc1cc(-c2nn3c(c2-n2ccn(-c4ccc5c(cnn5C)c4)c2=O)CN(C(=O)c2cc4cc(C5CCOCC5)ccc4n2C2(c4noc(=O)[nH]4)CC2)CC3)cc(C)c1F` [Compound 101, 3-(1-(2-(2-(4-fluoro-3,5-dimethylphenyl)-3-(3-(1-methyl-1H-indazol-5-yl)-2-oxo-2,3-dihydro-1H-imidazol-1-yl)-4,5,6,7-tetrahydropyrazolo[1,5-a]pyrazine-5-carbonyl)-5-(tetrahydro-2H-pyran-4-yl)-1H-indol-1-yl)cyclopropyl)-1,2,4-oxadiazol-5(4H)-one], the EC50 under setting [1] came to 3.41 nM and the EC50 under setting [2] is 3.31 nM.
For `Cc1cc(-c2nn3c(c2-n2ccn(-c4ccc5c(cnn5C)c4)c2=O)CN(C(=O)c2cc4cc(C5CCOCC5)ccc4n2C2(c4noc(=O)[nH]4)CCC2)CC3)cc(C)c1F` [Compound 102, 3-(1-(2-(2-(4-fluoro-3,5-dimethylphenyl)-3-(3-(1-methyl-1H-indazol-5-yl)-2-oxo-2,3-dihydro-1H-imidazol-1-yl)-4,5,6,7-tetrahydropyrazolo[1,5-a]pyrazine-5-carbonyl)-5-(tetrahydro-2H-pyran-4-yl)-1H-indol-1-yl)cyclobutyl)-1,2,4-oxadiazol-5(4H)-one] the same measures were 3300 nM and 2190 nM.
Take `Cc1cc(-c2nn3c(c2-n2ccn(-c4ccc5c(cnn5C)c4)c2=O)C(C)N(C(=O)c2cc4cc(C5CCOCC5)ccc4n2C2(c4noc(=O)[nH]4)CC2)CC3)cc(C)c1F` (stereo not shown) [Compound 103, 3-(1-(2-(2-(4-fluoro-3,5-dimethylphenyl)-4-methyl-3-(3-(1-methyl-1H-indazol-5-yl)-2-oxo-2,3-dihydro-1H-imidazol-1-yl)-4,5,6,7-tetrahydropyrazolo[1,5-a]pyrazine-5-carbonyl)-5-(tetrahydro-2H-pyran-4-yl)-1H-indol-1-yl)cyclopropyl)-1,2,4-oxadiazol-5(4H)-one]: the EC50 under setting [1] was found to be 0.29 nM.
In the case of `CCP(=O)(CC)c1ccc(-n2ccn(-c3c(-c4cc(C)c(F)c(C)c4)nn4c3C(C)N(C(=O)c3cc5cc(C6CCOCC6)ccc5n3C3(c5noc(=O)[nH]5)CC3)CC4)c2=O)cc1NC` (stereo not shown) [Compound 104, 3-(1-(2-(3-(3-(4-(diethylphosphoryl)-3-(methylamino)phenyl)-2-oxo-2,3-dihydro-1H-imidazol-1-yl)-2-(4-fluoro-3,5-dimethylphenyl)-4-methyl-4,5,6,7-tetrahydropyrazolo[1,5-a]pyrazine-5-carbonyl)-5-(tetrahydro-2H-pyran-4-yl)-1H-indol-1-yl)cyclopropyl)-1,2,4-oxadiazol-5(4H)-one], the EC50 under setting [1] was determined as 0.18 nM.
For `Cc1cc(-c2nn3c(c2-n2ccn(-c4ccc5c(cnn5C)c4)c2=O)CN(C(=O)c2cc4cc(C5CCOCC5)ccc4n2[C@@]2(c4noc(=O)[nH]4)C[C@@H]2C)CC3)cc(C)c1F` [Compound 105a, 3-((1S,2S)-1-(2-(2-(4-fluoro-3,5-dimethylphenyl)-3-(3-(1-methyl-1H-indazol-5-yl)-2-oxo-2,3-dihydro-1H-imidazol-1-yl)-4,5,6,7-tetrahydropyrazolo[1,5-a]pyrazine-5-carbonyl)-5-(tetrahydro-2H-pyran-4-yl)-1H-indol-1-yl)-2-methylcyclopropyl)-1,2,4-oxadiazol-5(4H)-one], the EC50 under setting [1] was determined as 1.86 nM.
As for `Cc1cc(-c2nn3c(c2-n2ccn(-c4ccc5c(cnn5C)c4)c2=O)CN(C(=O)c2cc4cc(C5CCOCC5)ccc4n2[C@@]2(C(=O)O)C[C@@H]2C)CC3)cc(C)c1F` [Compound 106a, (1S,2S)-1-(2-(2-(4-fluoro-3,5-dimethylphenyl)-3-(3-(1-methyl-1H-indazol-5-yl)-2-oxo-2,3-dihydro-1H-imidazol-1-yl)-4,5,6,7-tetrahydropyrazolo[1,5-a]pyrazine-5-carbonyl)-5-(tetrahydro-2H-pyran-4-yl)-1H-indol-1-yl)-2-methylcyclopropanecarboxylic acid], under setting [1], the EC50 was found to be 113 nM.
Same read-out and setting: as for `Cc1cc(-c2nn3c(c2-n2ccn(-c4ccc5c(cnn5C)c4F)c2=O)C(C)N(C(=O)c2cc4cc(C5CCOCC5)ccc4n2[C@@]2(c4noc(=O)[nH]4)C[C@@H]2C)CC3)cc(C)c1F` (stereo partly drawn) [Compound 109a, 3-((1S,2S)-1-(2-(3-(3-(4-fluoro-1-methyl-1H-indazol-5-yl)-2-oxo-2,3-dihydro-1H-imidazol-1-yl)-2-(4-fluoro-3,5-dimethylphenyl)-4-methyl-4,5,6,7-tetrahydropyrazolo[1,5-a]pyrazine-5-carbonyl)-5-(tetrahydro-2H-pyran-4-yl)-1H-indol-1-yl)-2-methylcyclopropyl)-1,2,4-oxadiazol-5(4H)-one], the figure is 0.18 nM.
